Reference: ChEMBL document CHEMBL1201862, “PubChem BioAssay data set” (2004)
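Five compound concentrations were applied to cells in 96-well plates for 48 hours; endpoints were derived by simple linear interpolation of the resulting dose-response curve. GI50 is the concentration that inhibits growth by half.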 Activity calls are given as the source filed them. Cut-off read from the data, not from the text of the source: active = GI50 up to about 1.1 µM and inactive = higher.

How the values were obtained:
Assay in all cases: growth of human tumour cells (NCI), 48 h
K562 = test system: K562
SK-MEL-5 = test system: SK-MEL-5
A549 = test system: A549
T47D = test system: T47D
SF-539 = test system: SF-539
SN12C = test system: SN12C
HCT-116 = test system: HCT-116
SK-MEL-28 = test system: SK-MEL-28
COLO 205 = test system: COLO 205
SNB-19 = test system: SNB-19
Malme-3M = test system: Malme-3M
OVCAR-3 = test system: OVCAR-3
MCF7 = test system: MCF7
CAKI-1 = test system: CAKI-1
SF-268 = test system: SF-268
MDA-MB-231 = test system: MDA-MB-231
LOX IMVI = test system: LOX IMVI
DU-145 = test system: DU-145
SK-OV-3 = test system: SK-OV-3

Measured: GI50

CCOC(=O)c1cc2cc([N+](=O)[O-])ccc2oc1=O
inactive: K562 41.2 µM | SK-MEL-5 > 100 µM | A549 > 100 µM | T47D > 100 µM | SF-539 > 100 µM | SN12C > 100 µM | HCT-116 93.3 µM | SK-MEL-28 > 100 µM | COLO 205 > 100 µM | SNB-19 > 100 µM | Malme-3M > 100 µM | OVCAR-3 > 100 µM | MCF7 62.1 µM | CAKI-1 > 100 µM | SF-268 39.3 µM | MDA-MB-231 > 100 µM | LOX IMVI > 100 µM | DU-145 > 100 µM

O=C1OC(c2ccccc2)N(C(=O)c2ccccc2)C1Cc1ccc(OCc2ccccc2)cc1 (stereo unspecified)
inactive: K562 > 100 µM | SK-MEL-5 43.8 µM | SK-OV-3 > 100 µM | A549 80.2 µM | T47D > 100 µM | SF-539 > 100 µM | SN12C > 100 µM | HCT-116 > 100 µM | SK-MEL-28 > 100 µM | COLO 205 > 100 µM | SNB-19 > 100 µM | MCF7 5.48 µM | SF-268 10.1 µM | MDA-MB-231 2.6 µM | LOX IMVI 8.11 µM | DU-145 > 100 µM

CC(=O)Nc1ccc2nncnc2c1
inactive: K562 > 100 µM | SK-MEL-5 > 100 µM | SK-OV-3 > 100 µM | A549 > 100 µM | T47D > 100 µM | SF-539 > 100 µM | SN12C > 100 µM | HCT-116 > 100 µM | SK-MEL-28 > 100 µM | COLO 205 > 100 µM | SNB-19 > 100 µM | OVCAR-3 > 100 µM | MCF7 > 100 µM | CAKI-1 > 100 µM | SF-268 > 100 µM | MDA-MB-231 > 100 µM | LOX IMVI > 100 µM | DU-145 > 100 µM

CC(C)[C@H](C)/C=C/[C@@H](C)C1CC[C@H]2[C@@]34C=C[C@]5(C[C@@H](O)CC[C@]5(C)[C@H]3CC[C@]12C)OO4 (stereo partly specified)
inactive: SK-MEL-5 23.6 µM | SK-OV-3 54.8 µM | A549 42.7 µM | T47D 20.8 µM | SF-539 29.6 µM | SN12C 28.6 µM | HCT-116 19.3 µM | SK-MEL-28 34 µM | COLO 205 31 µM | SNB-19 27.9 µM | OVCAR-3 89.5 µM | MCF7 31.9 µM | CAKI-1 22.5 µM | SF-268 29.7 µM | MDA-MB-231 25.5 µM | LOX IMVI 17.7 µM | DU-145 23.1 µM

CCn1c(-c2cc3ccccc3cc2OC(C)=O)n[nH]c1=S
inactive: K562 14.5 µM | SK-MEL-5 14.9 µM | SK-OV-3 50.7 µM | T47D 18.6 µM | SF-539 35.6 µM | HCT-116 18.5 µM | SK-MEL-28 32.4 µM | OVCAR-3 23.7 µM | MCF7 30.8 µM | CAKI-1 30.8 µM | SF-268 24.9 µM | MDA-MB-231 26.1 µM | LOX IMVI 37.2 µM | DU-145 35.5 µM

COc1ccc(N[S+]([O-])c2c(C)cc(C)cc2C)cc1 (stereo unspecified)
inactive: K562 42.1 µM | SK-MEL-5 23.8 µM | A549 26.4 µM | T47D 34 µM | SF-539 19.9 µM | SN12C > 100 µM | HCT-116 14.4 µM | SK-MEL-28 > 100 µM | COLO 205 > 100 µM | SNB-19 > 100 µM | Malme-3M 20.3 µM | OVCAR-3 61.9 µM | MCF7 56 µM | SF-268 21.6 µM | MDA-MB-231 80.2 µM | LOX IMVI 57 µM | DU-145 93.3 µM

c1ccc2c(c1)SCCCS2
inactive: K562 > 100 µM | SK-MEL-5 > 100 µM | SK-OV-3 > 100 µM | A549 > 100 µM | T47D > 100 µM | SF-539 > 100 µM | SN12C > 100 µM | HCT-116 > 100 µM | SK-MEL-28 > 100 µM | COLO 205 > 100 µM | SNB-19 > 100 µM | OVCAR-3 > 100 µM | MCF7 > 100 µM | SF-268 > 100 µM | MDA-MB-231 > 100 µM | LOX IMVI > 100 µM | DU-145 > 100 µM

CSc1ccccc1NC1=NCCO1
inactive: K562 > 100 µM | SK-MEL-5 > 100 µM | A549 > 100 µM | T47D > 100 µM | SF-539 > 100 µM | SN12C > 100 µM | HCT-116 > 100 µM | SK-MEL-28 > 100 µM | COLO 205 > 100 µM | SNB-19 > 100 µM | Malme-3M > 100 µM | OVCAR-3 > 100 µM | MCF7 > 100 µM | CAKI-1 > 100 µM | SF-268 > 100 µM | MDA-MB-231 > 100 µM | LOX IMVI > 100 µM | DU-145 > 100 µM

Cn1c2ccccc2n2c(=O)c(-c3ccc(Cl)cc3)nnc12
inactive: SK-MEL-5 > 100 µM | A549 > 100 µM | T47D > 100 µM | SF-539 43.3 µM | SN12C > 100 µM | HCT-116 > 100 µM | SK-MEL-28 > 100 µM | COLO 205 > 100 µM | SNB-19 > 100 µM | Malme-3M > 100 µM | MCF7 > 100 µM | CAKI-1 > 100 µM | SF-268 > 100 µM | MDA-MB-231 51.2 µM | LOX IMVI > 100 µM | DU-145 > 100 µM
